Measured values as given in patent US20200023036A1, “PHARMACEUTICAL COMPOSITION FOR PREVENTING OR TREATING INFLAMMATORY RESPIRATORY DISEASE CONTAINING FUSION PROTEIN IN WHICH CELL-PENETRATING PEPTIDE AND CTCTLA4 PEPTIDE ARE FUSED AS ACTIVE INGREDIENT” (IUCF-HYU (INDUSTRY-UNIVERSITY COOPERATION FOUNDATION HANYANG, priority 2017, published 2020).

Assays:
[1] = tested on: GCE-induced allergic asthma animal model; experiment: Airway hyperresponsiveness (AHR) to methacholine in GCE-induced allergic asthma animal model (Test Example 2); type: in vivo, BALB/c mice; conditions: 10 μg intranasal together with GCE twice a week for 3 weeks; measured on day 21
Procedure: The mice reared according to the method of 1) were used. Specifically, the 8-week-old BALB/c mice were sensitized by intranasal administration of PBS (sham) or 120 μg of GCE prepared according to the method of 2) twice a week for 3 weeks.
AHR was measured 4 days after the last GCE administration using a flexiVent 5.1 small-animal ventilator (SCIREQ, Montreal, PQ, Canada). The mice were placed in a whole body plethysmograph (Buxco, USA) and 0.4 mL of methacholine solutions at various concentrations (3.1, 6.25, 12.5, 25 or 50 mg/mL) in aerosols were administered through inhalation for 10 seconds. Penh was measured 1 minute and 2 minutes after the administration and the mean value was determined as the Penh (enhanced pause) value for the corresponding methacholine administration dosage.
The mice reared according to 1) of Experimental methods were used. Specifically, PBS (sham) or 120 μg of GCE prepared according to 2) of Experimental methods was intranasally administered to the 8-week-old BALB/c mice twice a week for 3 weeks. […] On day 21, the mice were anesthetized and hyperresponsiveness to methacholine (MeCh) was measured (see 4) of Experimental methods).
The mice reared according to 1) of Experimental methods were used. […]
On day 21, the animals were anesthetized and hyperresponsiveness to methacholine (MeCh) was measured (see 4) of Experimental methods).

[2] = tested on: GCE-induced allergic asthma animal model; experiment: Lung tissue observation with PAS and Masson's trichrome stain in GCE-induced allergic asthma animal model (Test Example 3); type: in vivo, BALB/c mice; conditions: 10 μg intranasal together with GCE
Procedure: The lung was fixed in a 10% formalin solution for a day and tissues were prepared as paraffin blocks and sectioned to 3- to 4-μm thickness using a microtome. The prepared slides were stained with PAS (periodic acid-Schiff) stain or Masson's trichrome stain.
To evaluate the inhibitory effect of the dNP2-ctCTLA-4 fusion protein on the pathophysiology of lungs in the GCE-induced allergic asthma animal model, the lung tissues of each test group and control group of Test Example 2 was observed according to 7) of Experimental methods.
The lung tissue of each test group and control group of Test Example 3 was imaged after staining with PAS. The red region indicates mucus-secreting goblet cells.
The lung tissues of each test group and control group of Test Example 3 were imaged after staining with Masson's trichrome stain. The blue region indicates collagen deposition and fibrosis.

[3] = tested on: GCE-induced allergic asthma animal model; experiment: Cell number and immune cell distribution in bronchoalveolar lavage fluid (Test Example 4); type: in vivo, BALB/c mice; conditions: 10 μg intranasal together with GCE; versus GCE-administered PBS test group
Procedure: In order to collect the bronchoalveolar lavage fluid, the mouse lungs were washed with 1 mL of HBSS (Hank's balanced salt solution) with an intubated tube fluid. Total cells in the lavage fluid were counted with a hemocytometer. Then, the lavage fluid was centrifuged and the cells were prepared on slides after centrifugation at 1000 rpm for 3 minutes. The slides were stained with a Hemacolor staining kit (Merck Millipore, Darmstadt, Germany). The cells were differentially counted until the total counted number reached at least 200 according to the standard hemocytologic procedures to count macrophages and eosinophils.
Experimental conditions were designed as in Test Example 2. A bronchoalveolar lavage fluid was obtained from each test group and control group of Test Example 2 and the inhibitory effect of eosinophil infiltration and Th2 cytokine production was investigated. The details of the design of experiments are as follows.
(§1) The mice reared according to 1) of Experimental methods were used. Specifically, 120 μg of GCE prepared according to 2) of Experimental methods was intranasally administered to the 8-week-old BALB/c mice twice a week for 3 weeks. 10 μg of dNP2-ctCTLA-4 (Example 2), dNP2-EGFP (Comparative Example 3) or a vehicle (PBS) was intranasally administered together when the GCE was administered to the mice.
15 minutes after the experiment was completed, a bronchoalveolar lavage fluid (BALF) was obtained by injecting 1 mL of PBS twice to each animal (see 5) of Experimental methods).

[4] = tested on: IL-5, IL-13, IL-4 and IFN-γ; experiment: Cytokine expression by ELISA in bronchoalveolar lavage and lung tissues (Test Example 4); type: in vivo, BALB/c mice; conditions: 10 μg intranasal together with GCE
Procedure: The […] obtained by the method of 5) was homogenized using the T-PER tissue protein extraction reagent (Thermo Fisher Scientific, MA, US) to prepare a suspension. The suspension was incubated at 4° C. for 30 minutes and then centrifuged at 2500 rpm for 10 minutes. The supernatant was filtered with a 0.45-μm filter to analyze cytokine expression levels.
as §1
The concentration of IL-5, IL-13, IL-4 and IFN-γ was analyzed with the ELSISA kit and the result was normalized to the total protein concentration of the tissue. The protein concentration was quantified by the Bradford assay. n=5 per each group and the results are presented as mean±s.e.m. (standard error of mean). *p<0.05, **p<0.01.
In this experiment, the bronchoalveolar lavage (BAL) and lung tissues were recovered from each test group and control group and the expression level of IL-13, IL-4 and Th2 cytokines was compared.

IL-13, IL-4 and IFN-γ = experiment: Cytokine expression by ELISA in bronchoalveolar lavage and lung tissues, comparison with CTLA4-Ig (Test Example 5); type: in vivo, BALB/c mice; conditions: 10 μg intranasal together with GCE
Procedure: The mice reared according to 1) of Experimental methods were used. Specifically, 120 μg of GCE prepared according to 2) of Experimental methods was intranasally administered to the 8-week-old BALB/c mice twice a week for 3 weeks.
(standard error of mean). *p<0.05, **p<0.01.

[5] = tested on: GCE-induced allergic asthma animal model; experiment: H&E lung tissue observation and airway epithelial thickness, comparison with CTLA4-Ig (Test Example 5); type: in vivo, BALB/c mice
[6] = tested on: naive CD4 T cells differentiated into Th2 cells; experiment: Th2 differentiation assay (Test Example 6); type: cell-based, BALB/c mice; conditions: 1 μM for 6 days; anti-CD3/CD28, IL-4; flow cytometry
Procedure: Mouse naive CD4 T cells were isolated from the 8-week-old BALB/c mice by magnetic-activated cell sorting (MACS, naive CD4 T cell isolation kit, mouse, Miltenyi, Bergisch Gladbach, Germany).
Then, 2.5×10^5 of the isolated cells were seeded onto anti-CD3/anti-CD28 antibody (0.1 μg/mL)-coated 96-well plates. The cells were incubated in the presence of anti-IFN-γ neutralizing antibody (5 μg/mL), IL-2 (50 U/mL), IL-4 (30 ng/mL) and PBS. After adding 1 μM dNP2-EGFP (Comparative Example 3) or 1 μM dNP2-ctCTLA-4 (Example 2) to each well for 6 days, the cells were analyzed by flow cytometry after re-stimulation, protein transport inhibitor treatment and intracellular staining with anti-mouse IFN-γ-FITC and anti-mouse IL-4-PE FACS antibodies.
The experiment was conducted according to 8) of Experimental methods.
MACS-sorted CD4^+ CD62L^hiCD44^− native CD4 T cells isolated from 8-week-old BALB/c mice were used. They were differentiated into Th2 cells by addition of IL-4 during activation with anti-CD3/CD28 antibodies for 6 days.
The result is presented as mean±s.e.m. (standard error of mean) (n=3). **p<0.01. NA (non-activated) denotes a negative control group, not stimulated by cytokines or anti-TcR antibody.

dNP2-ctCTLA-4: fusion protein: cell-penetrating peptide dNP2 (SEQ ID NO 1) linked to the N-terminal of the ctCTLA-4 peptide (SEQ ID NO 2) (KIKKVKKKGRKGSKIKKVKKKGRKKMLKKRSPLTTGVYVKMPPTEPECEKQFQPYFIPIN; Synthetic peptide sequence, dNP2 peptide; Synthetic peptide sequence, ctCTLA-4 peptide)
airway hyperresponsiveness to methacholine (airway resistance and airway elastance) [1]: significantly reduced airway hyperresponsiveness | fibrotic area around the bronchial regions (Masson's trichrome stain) [2]: significantly reduced fibrotic area | inflammatory cells and goblet cells in the lungs (PAS stain) [2]: significantly reduced inflammatory cells and goblet cells | decrease in the number of eosinophils in the bronchoalveolar lavage (BAL) [3]: ≥ 3 times | decrease in the number of macrophages in the bronchoalveolar lavage (BAL) [3]: ≥ 3 times | decrease in the number of total cells in the bronchoalveolar lavage (BAL) [3]: ≥ 3 times | level of IFN-γ ([4]; ELISA): decreased level of IFN-γ | decreased expression levels of IL-5, IL-13, IL-4 and IFN-γ in lung tissues ([4]; ELISA normalized to total protein, versus PBS test group): > 2 times | decreased expression levels of IL-5, IL-13, IL-4 and IFN-γ in the bronchoalveolar lavage (BAL) ([4]; ELISA, versus PBS test group): more than 3 times | levels of IL-13 and IFN-γ in the bronchoalveolar lavage (BAL) and lung tissues (IL-13, IL-4 and IFN-γ): significantly decreased levels of IL-13 and IFN-γ | physiological features of the respiratory epithelium: cell infiltration and airway epithelium thickening (H&E) ([5]; 10 μg intranasal together with GCE): improved physiological features of the respiratory epithelium | pharmacological effect relative to the existing CTLA4-Ig ([5]; intranasal administration, GCE-induced allergic asthma animal model): 2-3 times | cytokine production (IL-4 and/or IL-13-producing CD4 T cells) in Th2 differentiation [6]: significantly reduced cytokine production
